Test results from patent US20200253922A1, “METHODS FOR NON-[…] ADMINISTRATION OF CANNABINOIDS USING SOFT MIST […]” (Molecular Infusions, LLC, priority 2019, published 2020).
Where two headings read alike, the source gives them in different places.

What was measured:
[1] = acidic form; cited from earlier work
[2] = Terpene solubility assessment in base formulation of 10% Saline, 20% Water, 70% Ethanol; assay type: physicochemical; settings: for Visual Observation: mixed overnight at room temperature
Procedure: The base formulation was prepared in bulk and 15 g aliquots were transferred to 22 ml scintillation vials. Pure, botanically derived terpenes were purchased from commercial sources.

[3] = test system: patients; settings: aerosol formulation; cited from earlier work
[4] = Solubility of Δ9-THC and CBD in a solution of ethanol and saline at room temperature
Procedure: FIG. 5 is a photograph of 2% w/w Δ9-THC and 2% w/w CBD in solutions of 10%, 20%, 30%, 40% and 50% (w/w) saline in ethanol. Δ9-THC and CBD were soluble in solutions of up to 30% and 40% (w/w) saline, respectively.
As shown in FIG. 5 the solubility of Δ9-THC and CBD in a solution of ethanol and saline was investigated. […] A 2% w/w solution of CBD was prepared at room temperature in solutions of 10%, 20%, 30%, 40%, or 50% (w/w) saline in ethanol. 2% w/w CBD was soluble at room temperature in ethanol solutions of up to 40% saline. In a separate experiment, the absolute solubility of Δ9-THC in ethanol solutions containing 30%w/w saline was determined to be ˜8%w/w (data not shown).

[5] = test system: Volunteers; assay: User feedback on tolerability of Δ9-THC distillate in ethanol delivered via […]; assay type: in vivo, human; settings: in 200 proof ethanol, RESPIMAT
Text: Volunteers reported that 200 proof ethanol (placebo) delivered using the […]® device as non-irritating. It was observed that the cannabinoid, Δ9-THC in the ethanol solution, induced irritation that was dose dependent as shown in Table 1 below:
The irritation was caused by cannabinoid deposition at mucosal membranes in the throat and upper airways. The lung deposition profile is affected by multiple factor including FPF as well as user inhalation technique. For example, it has been shown that the timing of inhalation and actuation as well as the posture of the user's head can have an impact on lung deposition. It is also important to note that in vitro impactor studies commonly underestimate dose deposition in the throat and overestimate the dose deposited in the lungs (Wei et al. (2018), Journal of Aerosol Medicine and Pulmonary Drug Delivery 31(0): 1-14).

[6] = Fine particle fraction by Fast Screening Impactor, Respimat device, 28.3 L/min; assay type: physicochemical
Text: An abbreviated impactor set-up, Copley Scientific's ‘Fast Screening Impactor’ (FSI), was used to determine the FPF within liquid aerosols (Mitchell et al. AAPS PharmSciTech. 2009;10(1):252-7). The FSI consisted of the universal induction port (UIP), course fraction collector (pre-separator and insert with a 5 μm diameter cut-off @ 28.3 L/min), and fine particle fraction collector consisting of a holder and glass fiber filter. The system was assembled along with a Copley LC5 pump. The flow rate was set by attaching a flow meter to the inlet of the induction port and adjusting the flow control valve on the LC5 vacuum pump until the flow rate through the system was 28.3 L/min +/−5%. Measurements were performed under ambient laboratory conditions (˜60% RH, 72° F.). The Respimat device was primed and attached to the UIP using a mouthpiece adapter. With the vacuum pump running, the device was actuated followed by a 30 second hold before turning off the vacuum pump. The Respimat device was re-primed and another dose was collected in the FSI. To determine the amount of cannabinoids deposited in each stage, the FSI was dismantled and each stage was extracted with 10 ml of methanol. Samples were diluted and HPLC performed to quantify the mass of cannabinoids deposited in the USP throat, coarse fraction collector, and fine particle fraction collector.

[7] = test system: asthmatic patients; settings: metered dose inhaler, cited from earlier work
[8] = test system: subjects; settings: 5 mg dose via pMDI; cited from earlier work
[9] = test system: healthy volunteers; settings: doses greater than 2 mg, PARI nebulizer, eight healthy volunteers, all patients; cited from earlier work

**Q.** For O=C1NS(=O)(=O)c2ccccc21 [saccharin], which pKa [1] is on record?
**A.** Its pKa is roughly 1.9.

**Q.** Which results are given for C=CC(=C)CCC=C(C)C [β-myrcene]?
**A.** solubility at the lowest percentage tested ([2]; 0.06% w/w): not soluble; Visual Observation ([2]; Target Concentration 0.06% w/w): Hazy, not fully; Visual Observation ([2]; Target Concentration 0.24% w/w): Hazy, not fully; Visual Observation ([2]; Target Concentration […] w/w): Hazy, not fully

**Q.** With CCCCCc1cc(O)c2c(c1)OC(C)(C)C1CC=C(C)CC21 (stereo not shown) [Δ8-THC, delta-8-tetrahydrocannabinol] as the compound, how does the cough reaction [3] read?
**A.** The cough reaction was “causing patients to cough”.

**Q.** Which results are given for C=CC(C)(O)CCC=C(C)C (stereo not shown) [Linalool]?
**A.** Visual Observation ([2]; Target Concentration 0.06% w/w): Clear, colorless; Visual Observation ([2]; Target Concentration 0.24% w/w): Hazy, not fully; Visual Observation ([2]; Target Concentration […] w/w): Clear, colorless

**Q.** Which “observation of 2% w/w solution” value ([4]; 50% (w/w) saline solution) does the source give for C=C(C)[C@@H]1CCC(C)=C[C@H]1c1c(O)cc(CCCCC)cc1O [CBD, Cannabidiol] here?
**A.** Its value is “precipitate”.

**Q.** Which results are given for CC1=CCC(=C(C)C)CC1 [Terpinolene]?
**A.** Visual Observation ([2]; Target Concentration 0.06% w/w): Clear, colorless; Visual Observation ([2]; Target Concentration 0.24% w/w): Hazy, not fully; Visual Observation ([2]; Target Concentration […] w/w): Clear, colorless

**Q.** What does the source list for CCCCCc1cc(O)c2c(c1)OC(C)(C)[C@@H]1CCC(C)=C[C@@H]21 [Δ9-THC, Delta-9-tetrahydrocannabinol]?
**A.** User experience ([5]; dose 0.35 mg): Most tolerable: Cough may occur, mild irritation of; User experience ([5]; dose 0.6 mg): Harsh: Mild cough with mild throat/upper airway; User experience ([5]; dose 1 mg): Harsh: Coughing with throat/upper airway irritation; User experience ([5]; dose 2 mg): Extremely harsh: Coughing with throat/upper airway; % dose in FPF ([6]; dose 0.35 mg): 76%; % dose in FPF ([6]; dose 0.6 mg): 76%; % dose in FPF ([6]; dose 1 mg): 77%; % dose in FPF ([6]; dose 2 mg): 78%; saline content of ethanol solution up to which 2% w/w is soluble ([4]; 2% w/w, room temperature, 10-50% (w/w) saline in ethanol tested): up to 30 % (w/w) saline; observation of 2% w/w solution ([4]; 40% and 50% (w/w) saline solutions): form a separate liquid phase (oiling out); absolute solubility ([4]; ethanol solutions containing 30%w/w saline, data not shown): ~8 %w/w; tolerability of aerosol delivery to the lungs ([7]; 0.2 mg): tolerable; tolerability of aerosol delivery to the lungs ([7]; doses higher than 0.2 mg): irritating and induced coughing; subjects with side effects including cough and/or chest discomfort [8]: 3 out of 11; irritation reported after inhalation, compared to a placebo formulation [9]: significant irritation of the throat and upper respiratory tract

**Q.** With C=C1CC/C=C(\C)CC[C@@H]2[C@@H]1CC2(C)C [β-caryophyllene] as the compound, how does the “Visual Observation” value ([2]; Target Concentration 0.06% w/w) read?
**A.** The value was “Clear, colorless”.

**Q.** And the “Visual Observation” value ([2]; Target Concentration 0.24% w/w)?
**A.** Its value is “Hazy, not fully”.

**Q.** And the “Visual Observation” value ([2]; Target Concentration […] w/w)?
**A.** Its value is “Clear, colorless”.

**Q.** Which “Visual Observation” value ([2]; Target Concentration 0.06% w/w) does the source give for CC12CCC(CC1)C(C)(C)O2 [Eucalyptol] here?
**A.** The value was “Clear, colorless”.

**Q.** And the “Visual Observation” value ([2]; Target Concentration 0.24% w/w)?
**A.** Its value is “Hazy, not fully”.

**Q.** And the “Visual Observation” value ([2]; Target Concentration […] w/w)?
**A.** The value was “Clear, colorless”.
